These results are taken from ChEMBL document CHEMBL3507680, “University of Dundee, Gates Library screen for HepG2 cell viability”.

The structures appear in SMILES notation.

The nature of this series: Human HepG2 cell viability assay in 384 well format. Further details: dose 125 nL, time 70.5 hour; concentration not given beside the values. The conditions noted are these: HepG2 cells, read-out: Inhibition. It is filed as toxicity, cell-based.

As to `Cc1nc(N(C)C2CCCCC2)ncc1C(C)NC(=O)c1cscn1` (configuration not stated), the cytotoxicity at 70.5 h worked out at 1.66%.
Regarding `Cc1ccnc(NCCSc2nccn2C)n1`, the cytotoxicity at 70.5 h was -5.33%.
In the case of `CC(Cn1cncn1)NC1CCN(Cc2cccc(O)c2)CC1` (configuration not stated), the cytotoxicity at 70.5 h is -2.81%.
As to `COCCN(C)C[C@@H]1CN(Cc2ccnc3ccccc23)C[C@@H]1CO`, the cytotoxicity at 70.5 h was -16.1%.
Consider `COc1ccc(C(=O)C2CCCN(c3cc(C#N)ccn3)C2)cc1OC` (configuration not stated), for which the cytotoxicity at 70.5 h is -5.09%.
Turning to `CN(C)CCN1CC(C(=O)N(C)Cc2cc3cc(F)ccc3[nH]2)CC1=O` (configuration not stated), the cytotoxicity at 70.5 h is -7.58%.
Turning to `O=C1N(C2CCCCC2)CCCC12CCN(S(=O)(=O)c1cccnc1)C2` (configuration not stated), the cytotoxicity at 70.5 h was -5.02%.
With `O=C(C1CC(=O)N(C2CC2)C1)N1CCN(CCn2cccc2)CC1` (configuration not stated), the cytotoxicity at 70.5 h was -1.53%.
`COCC(=O)NCc1cccnc1-n1cnc2ccccc21`: the cytotoxicity at 70.5 h was -0.396%.
On to `Cc1nc[nH]c1CN1CCCn2nc(CN3CCC(F)(F)CC3)cc2C1`, for which the cytotoxicity at 70.5 h was -9.44%.
With `COC(=O)C(C)NCc1ccc2[nH]c(C)c(C)c2c1` (configuration not stated), the cytotoxicity at 70.5 h was -0.287%.
In the case of `CCC(NC1CSCCSC1)c1ccc(S(C)(=O)=O)cc1` (configuration not stated), the cytotoxicity at 70.5 h is -14.2%.
`Cc1ccc(CN2CCN(Cc3ccc(N(C)C)nc3)CC2=O)cc1C`: the cytotoxicity at 70.5 h is -1.36%.
On to `O=C(NCCc1nc(C2CC2)no1)[C@H]1CNC[C@H](C(=O)N2CCCC2)C1`, for which the cytotoxicity at 70.5 h was -1.74%.
For the compound `CSc1cccc(CN(C)C(=O)c2ccc(C3CCCNC3)cc2)c1` (configuration not stated), the cytotoxicity at 70.5 h is -7.25%.
For `CCOC(=O)C1(Cc2ccccc2)CCCN(Cc2nccn2CC)C1` (configuration not stated), the cytotoxicity at 70.5 h was -0.0866%.
For `OC1(CN2CCCC2)COCCN(c2cc(C(F)(F)F)ccn2)C1` (configuration not stated), the cytotoxicity at 70.5 h was -7.83%.
`Cc1ccc(F)cc1CC(=O)N(CCN1CCOCC1)Cc1ccco1`: the cytotoxicity at 70.5 h was -6.95%.
Next, `Cc1ccc(NC(=O)CNC(C)Cc2ccsc2)cc1F` (configuration not stated): -8.47%.
As to `CN1CCCC1CCn1ccnc1-c1nc(-c2ccccc2)no1` (configuration not stated), the cytotoxicity at 70.5 h is 16.5%.
In the case of `CCn1cc(CN2CCCN(C3Cc4ccccc4C3)CC2)c(C)n1`, the cytotoxicity at 70.5 h was 24.3%.
Consider `O=C(O)c1cccc(C2CCCN(S(=O)(=O)N3CCOCC3)C2)c1` (configuration not stated), for which the cytotoxicity at 70.5 h is -7.39%.
Consider `Cc1ccc(CN2CCN(c3cncc(N(C)C)n3)CC2=O)cc1C`, for which the cytotoxicity at 70.5 h was -7.53%.
In the case of `CNC(=O)c1nc(CN2CCOC(CCCC(C)C)C2)no1` (configuration not stated), the cytotoxicity at 70.5 h is -16.2%.
In the case of `COc1ccc(OC)c(C2CCN(C(=O)C3CCS(=O)(=O)CC3)C2)c1` (configuration not stated), the cytotoxicity at 70.5 h was -7.16%.
As to `O=C(N[C@H]1COC[C@@H]1N1CCCC1)c1csc(-c2cccs2)n1`, the cytotoxicity at 70.5 h is -10.9%.
As to `Cn1ccc(C2CCCCN2C(=O)c2cccc(Cn3cccn3)c2)n1` (configuration not stated), the cytotoxicity at 70.5 h stood at 8.89%.
Regarding `COc1ncc(-c2c(C#N)c(N)nc3c2CCc2[nH]ccc2-3)cn1`, the cytotoxicity at 70.5 h was -4.69%.
Under `COC1CCCN(c2nc(C)nc3c2CCN(Cc2ccco2)CC3)C1` (configuration not stated) stands 8.06%.
With `NC(=O)c1csc(N2CCCC(c3n[nH]c(=O)n3-c3ccccc3)C2)n1` (configuration not stated), the cytotoxicity at 70.5 h is -6.33%.
As for `Cc1nccn1Cc1nnc(C2CCCN(Cc3ccncc3)C2)n1C` (configuration not stated), the cytotoxicity at 70.5 h was -17.2%.
For the compound `CCC(NC(=O)c1cnc(N(C)C)nc1C)c1ccc(S(C)(=O)=O)cc1` (configuration not stated), the cytotoxicity at 70.5 h is -8.61%.
Under `Cc1ccc(C)c2c(O)cc(CNCc3ccc(S(N)(=O)=O)cc3)nc12` stands -4.39%.
Consider `CCc1oc(C(=O)N2CC[C@H]3CC[C@@H](C2)N3)cc1CN(CC)CC`, for which the cytotoxicity at 70.5 h was -8.75%.
Under `CCC[C@@H]1CN(Cc2ccc(C(F)(F)F)nc2)C[C@H]1NS(C)(=O)=O` stands 11.1%; under `CCN(CC)S(=O)(=O)N1CCC(c2nccn2Cc2ccccn2)CC1`, 12.4%.
Under `NCC(=O)N1CCCC1c1ccc(C(=O)NCc2ccoc2)s1` (configuration not stated) stands -2.34%.
As for `O=C1N(CCC2CCCCC2)CCCC1(O)CNCCc1ccccc1` (configuration not stated), the cytotoxicity at 70.5 h amounted to 0.277%.
In the case of `CN(c1ncccc1CNC(=O)c1cscn1)C1CCCCC1`, the cytotoxicity at 70.5 h is 0.847%.
Take `O=C(c1cn2ccsc2n1)N1CCOCC(O)(CN2CCCC2)C1` (configuration not stated): the cytotoxicity at 70.5 h worked out at 1.73%.
On to `Cc1cc(N2CCCN(C(C(=O)O)c3cccc(C)c3F)CC2)ccn1` (configuration not stated), for which the cytotoxicity at 70.5 h worked out at 3.14%.
As for `C[C@@H]1CN(C2CCN(c3ccccc3)CC2)CC[C@@]1(O)C1CCOCC1`, the cytotoxicity at 70.5 h is -3.71%.
In the case of `Cc1ncc(CN2CCN(C(=O)C3CCC3)[C@@H]3CS(=O)(=O)C[C@@H]32)cn1`, the cytotoxicity at 70.5 h is -16.2%.
As to `O=C(CN1CCCCCC1)NCc1cccnc1Oc1ccccc1`, the cytotoxicity at 70.5 h was -2.72%.
Consider `CCOC(=O)N1CCCn2nc(C(=O)NCCN(C)C)cc2C1`, for which the cytotoxicity at 70.5 h is -6.9%.
As for `Cn1nccc1C(=O)N1CCC(n2cc(-c3ccsc3)nn2)CC1`, the cytotoxicity at 70.5 h is -3.85%.
As to `CN(C)CC1(O)CCN(C(=O)c2ccc(-n3cnnc3)cc2Cl)C1` (configuration not stated), the cytotoxicity at 70.5 h is 7.55%.
As for `COCCCN1CC2(CCCN(c3ncnc4[nH]ccc34)C2)CCC1=O` (configuration not stated), the cytotoxicity at 70.5 h is -6.33%.
Next, `Cc1nccn1CCCC(=O)N1CCC2(CCC(=O)N(C(C)C)C2)CC1`: -4.22%.
For the compound `CN1C[C@H]2CNC[C@@]2(C(=O)N2CCN(c3ncccc3C#N)CC2)C1`, the cytotoxicity at 70.5 h was -6.13%.
For `Cc1ccc(C(=O)N2C[C@@H](C(=O)O)[C@H](c3ccncc3)C2)cc1F`, the cytotoxicity at 70.5 h was -5.6%.
Consider `O=C(CN1CCOC1=O)N(Cc1ccccc1)Cc1nccs1`, for which the cytotoxicity at 70.5 h is -14.3%.
Next, `Cc1noc(C)c1CN1C(=O)[C@H]2CC[C@@H]1CN(Cc1cccc(O)c1)C2`: 5.47%.
For `O=C(CN1CCOCS1(=O)=O)NCCc1ccc(Cl)cc1`, the cytotoxicity at 70.5 h is -9.99%.
Under `CC1CNC(=O)CCN1Cc1cc(O)c2cccc(F)c2n1` (configuration not stated) stands -6.4%; under `O=C(CCCc1ccc(Cl)cc1)N1CCN(C(=O)c2ccc[nH]2)CC1`, 1.45%.
Take `COc1ccnc(N2CCC3(CCCN(CC4CC4)C3=O)C2)n1` (configuration not stated): the cytotoxicity at 70.5 h is -6.47%.
Next, `CCN1CCN(C[C@@H]2CN(c3ncccc3Cl)C[C@@H]2CO)CC1`: -3.91%; `COc1cc(Oc2ccc(C(N)=O)cn2)ccc1CN1CCCC1`: -6.89%; `Cc1ccc(OCc2occc2C(=O)N2CC[C@H](CO)[C@@H](O)C2)cc1`: -8.34%.
Next, `CCS(=O)(=O)N(C)CCCNCc1c(C)nn(C)c1N(C)C`: -2.24%; `Cc1nc(CC(=O)N2CCc3nnc(N(C)C)cc3C2)cs1`: 0.153%; `Cc1nn(C)c(N(C)C)c1CNCCCN(C(C)C)S(C)(=O)=O`: 8.55%.
Turning to `CCS(=O)(=O)NCCCNCc1c(C)nn(C)c1N(C)C`, the cytotoxicity at 70.5 h is 21.5%.
Consider `Cc1cc(C(=O)O)cc(S(=O)(=O)Nc2ccc3c(c2)OCCCO3)c1C`, for which the cytotoxicity at 70.5 h was -5.74%.
Consider `CC(C)CN(Cc1nc2c(cnn2C)c(=O)[nH]1)CC(C)C`, for which the cytotoxicity at 70.5 h was -5.64%.
On to `CCC(C)N(CCOC)Cc1nc2c(cnn2C)c(=O)[nH]1` (configuration not stated), for which the cytotoxicity at 70.5 h turned out to be 17.1%.
Turning to `CN(CCC(F)(F)F)C(=O)c1nc(S(C)(=O)=O)n2ccccc12`, the cytotoxicity at 70.5 h was found to be 25.3%.
On to `CCCC(C)N(C)C(=O)c1nc(S(C)(=O)=O)n2ccccc12` (configuration not stated), for which the cytotoxicity at 70.5 h is 0.813%.
For the compound `CC(C)CC(C)N(C)C(=O)c1nc(S(C)(=O)=O)n2ccccc12` (configuration not stated), the cytotoxicity at 70.5 h is 2.74%.
For `CS(=O)(=O)c1cccc(C(=O)N2CCCC(n3cccn3)C2)c1` (configuration not stated), the cytotoxicity at 70.5 h was determined as 2.98%.
Consider `NS(=O)(=O)Cc1cccc(C(=O)N2CCCC(n3cccn3)C2)c1` (configuration not stated), for which the cytotoxicity at 70.5 h was 4.57%.
As for `CN(C)c1cc2c(nn1)CCN(C(=O)Cc1ccc3c(c1)CCC3)C2`, the cytotoxicity at 70.5 h was -1.75%.
In the case of `CCc1ccc(C(=O)O)cc1S(=O)(=O)Nc1ccc2c(c1)OCCO2`, the cytotoxicity at 70.5 h was determined as 4.02%.
For the compound `NC(=O)c1cccc(OCC(=O)NS(=O)(=O)c2ccc3c(c2)CCC3)c1`, the cytotoxicity at 70.5 h is -0.191%.
In the case of `COCc1nc(C(=O)NS(=O)(=O)c2cc(C)ccc2C)cs1`, the cytotoxicity at 70.5 h stood at 3.09%.
For the compound `Cc1occc1C(=O)N1CCCN(Cc2nccn2C(C)C)CC1`, the cytotoxicity at 70.5 h was 20.3%.
With `Cc1ccc(C(=O)N2CCN(Cc3cccs3)CC2)c(=O)[nH]1`, the cytotoxicity at 70.5 h is -3.21%.
For `CCC(=O)NCC(=O)NCC1CCN(c2cc(Cl)ccc2C)C1` (configuration not stated), the cytotoxicity at 70.5 h was -1.96%.
With `NC(=O)CN1CCN(C(=O)c2cc(Cl)cc3cccnc23)CC1`, the cytotoxicity at 70.5 h was determined as 19.4%.
With `Cc1nccc(C(=O)N2CCCN(Cc3nccn3C(C)C)CC2)n1`, the cytotoxicity at 70.5 h is -4.19%.
Under `CCOc1ccc(Cl)c(C(=O)NCCC(=O)Nc2ccncc2)n1` stands 0.642%; under `Cc1ccc(Cl)cc1N1CCC(CNC(=O)Cn2cccn2)C1` (configuration not stated), 5.6%.
Under `Cc1cc(C(=O)N2CCCN(Cc3nccn3C(C)C)CC2)no1` stands -5.9%.
On to `CC(C)c1nc(C2CCCN2CCS(=O)(=O)c2ccccc2)no1` (configuration not stated), for which the cytotoxicity at 70.5 h amounted to 2.5%.
`CCc1nc(C2CCCN2Cc2ccn(C)c(=O)c2)no1` (configuration not stated): the cytotoxicity at 70.5 h is -2.34%.
Take `Cc1nc(C)n(C2CCCN(C(=O)c3cc(C4CC4)on3)C2)n1` (configuration not stated): the cytotoxicity at 70.5 h was 1.36%.
Next, `Cc1nc(C2CCCN2Cc2ccn(C)c(=O)c2)no1` (configuration not stated): 0.568%.
Regarding `NC(=O)c1cc(C2CCCN(CCOc3cccc(F)c3)C2)n[nH]1` (configuration not stated), the cytotoxicity at 70.5 h worked out at 13%.
With `O=C1CCc2cc(NC(=O)C3CCCN3c3nccs3)ccc2N1` (configuration not stated), the cytotoxicity at 70.5 h is -1.9%.
As for `CCOc1ccc(Cl)c(C(=O)NC)n1`, the cytotoxicity at 70.5 h came to 0.647%.
Turning to `O=C(NCCn1ccnc1)N1CCCC1c1ccc2c(c1)OCCO2` (configuration not stated), the cytotoxicity at 70.5 h was -4.48%.
Turning to `Cc1noc(C2CCN(C(=O)CCc3ccccn3)CC2)n1`, the cytotoxicity at 70.5 h was -4.44%.
Take `CC(C)n1ccnc1CN1CCCN(C(=O)c2cnn(C)c2)CC1`: the cytotoxicity at 70.5 h is -0.464%.
With `CC(C)n1ccnc1CN1CCCN(C(=O)c2cnc[nH]2)CC1`, the cytotoxicity at 70.5 h was -1.35%.
Take `COc1ccc(C2CCCN2C(=O)NCCn2ccnc2)cc1OC` (configuration not stated): the cytotoxicity at 70.5 h is 0.318%.
Under `O=C(NCCn1ccnc1)N1CCCC1c1cccs1` (configuration not stated) stands 2.2%.
